# Measurements: ChEMBL document CHEMBL6153133, “Discovery of Diphenyl Ether Derivatives as Novel BKCa Channel Activators: Structure-Activity Relationship, Cryo-EM Complex Structures, and In Vivo Animal Studies” (J Med Chem, 2025)
# Activity calls are given as the source filed them. The calls are words filed in the database; no cut-off is given here.
# Assays:
# [1] = tested on: Calcium-activated potassium channel subunit alpha-1 (Homo sapiens), Q12791 [UNDEFINED MUTATION]; experiment: (§1) Activation of hyperactive human BKca channel G803D/N806K mutant transfected in human AD-293 cells assessed as maximum relative fluorescence value at 5 uM preincubated for 15 mins followed by Tl+ stimulus buffer addition and measured after 80 sec by Flexstation3 multimode microplate reader analysis relative to control; assay type: cell-based; conditions: time 980.0 sec
# Sequence of Calcium-activated potassium channel subunit alpha-1 (Homo sapiens), Q12791 [UNDEFINED MUTATION] (Q12791 whole entry, looked up, stated change not applied): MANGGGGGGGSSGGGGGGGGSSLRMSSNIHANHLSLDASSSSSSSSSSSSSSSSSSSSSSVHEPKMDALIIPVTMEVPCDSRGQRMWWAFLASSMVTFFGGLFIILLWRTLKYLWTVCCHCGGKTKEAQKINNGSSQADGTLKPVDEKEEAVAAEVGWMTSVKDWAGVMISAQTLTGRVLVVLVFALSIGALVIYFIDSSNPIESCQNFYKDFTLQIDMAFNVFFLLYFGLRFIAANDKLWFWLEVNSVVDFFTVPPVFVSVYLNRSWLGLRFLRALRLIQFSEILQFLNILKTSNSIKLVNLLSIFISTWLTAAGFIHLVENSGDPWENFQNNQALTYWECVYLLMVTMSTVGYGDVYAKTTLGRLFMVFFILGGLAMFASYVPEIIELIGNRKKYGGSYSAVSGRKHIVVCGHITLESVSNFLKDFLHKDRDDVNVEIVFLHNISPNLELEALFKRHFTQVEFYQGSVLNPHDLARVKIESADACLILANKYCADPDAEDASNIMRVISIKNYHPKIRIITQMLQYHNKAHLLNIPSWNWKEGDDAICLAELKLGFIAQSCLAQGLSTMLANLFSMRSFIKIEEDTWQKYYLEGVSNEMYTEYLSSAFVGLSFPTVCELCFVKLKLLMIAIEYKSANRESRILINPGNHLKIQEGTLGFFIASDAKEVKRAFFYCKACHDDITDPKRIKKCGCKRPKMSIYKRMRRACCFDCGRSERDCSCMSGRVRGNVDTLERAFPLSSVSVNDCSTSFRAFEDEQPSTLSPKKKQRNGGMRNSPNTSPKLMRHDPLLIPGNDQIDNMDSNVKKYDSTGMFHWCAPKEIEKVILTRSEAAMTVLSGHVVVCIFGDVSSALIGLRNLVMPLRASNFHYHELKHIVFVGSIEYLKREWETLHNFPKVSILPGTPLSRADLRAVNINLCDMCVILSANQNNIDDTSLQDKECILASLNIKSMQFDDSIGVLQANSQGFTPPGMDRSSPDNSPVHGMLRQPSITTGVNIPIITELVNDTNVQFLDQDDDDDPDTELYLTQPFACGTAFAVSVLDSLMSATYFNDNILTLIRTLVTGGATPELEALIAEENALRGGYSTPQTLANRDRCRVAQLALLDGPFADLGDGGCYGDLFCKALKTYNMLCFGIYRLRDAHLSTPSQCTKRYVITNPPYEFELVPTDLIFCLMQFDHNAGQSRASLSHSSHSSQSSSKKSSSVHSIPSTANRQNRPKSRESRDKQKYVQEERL
# [2] = tested on: Calcium-activated potassium channel subunit alpha-1 (Homo sapiens), Q12791 [UNDEFINED MUTATION]; experiment: as §1, with “at 1” for “at 5”; assay type: cell-based; conditions: time 980.0 sec
# [3] = tested on: Calcium-activated potassium channel subunit alpha-1 (Homo sapiens), Q12791 [UNDEFINED MUTATION]; experiment: as §1, with “assessed as fold change in maximum relative” for “assessed as maximum relative”, “relative to 4-chloro-7-(trifluoromethyl)-10H-benzofuro[3,2-b]indole-1-carboxylic acid” for “relative to control”; assay type: cell-based; conditions: filed as opener, time 980.0 sec
# [4] = Metabolic stability in rat liver microsomes assessed as parent compound remaining at 1 uM preincubated for 5 mins followed by NADPH addition and measured after 30 mins by LC-MS/MS analysis; assay type: ADME, Microsome; conditions: read-out: Stability
# [5] = Metabolic stability in human liver microsomes assessed as parent compound remaining at 1 uM preincubated for 5 mins followed by NADPH addition and measured after 30 mins by LC-MS/MS analysis; assay type: ADME, Microsome; conditions: read-out: Stability
# [6] = tested on: Calcium-activated potassium channel subunit alpha-1 (Homo sapiens), Q12791 [UNDEFINED MUTATION]; experiment: as §1, with “assessed as fold change in maximum relative” for “assessed as maximum relative”, “reader analysis” for “reader analysis relative to control”; assay type: cell-based; conditions: filed as opener, time 980.0 sec
# [7] = molecular target: Calcium-activated potassium channel subunit alpha-1 (Homo sapiens, UniProt Q12791, G803D/N806K); experiment: (§2) Activation of hyperactive human BKca channel G803D/N806K mutant transfected in human AD-293 cells incubated for 15 mins by Flexstation3 multimode microplate reader analysis; assay type: cell-based
# Sequence of Calcium-activated potassium channel subunit alpha-1 (Q12791 whole entry, looked up, stated change not applied): as above
# Oocyte [8] = experiment: Activation of rat BKca channel extracted from Xenopus laevis Oocytes assessed as left shift in G-V curve at 5 uM by patch-clamp electrophysiology recordings; assay type: cell-based; conditions: filed as opener
# Rattus norvegicus [9] = experiment: Reversal of urinary incontinence in male spontaneous hypertensive rat model assessed as decrease in urine frequency at 10 to 50 mg/kg, po measured after 3 hrs; assay type: functional, organism-based; conditions: dose 10-50 mg/kg
# [10] = tested on: Calcium-activated potassium channel subunit alpha-1 (Homo sapiens), Q12791 [UNDEFINED MUTATION]; experiment: Activation of hyperactive human BKca channel G803D/N806K mutant transfected in human AD-293 cells at >2 uM preincubated for 15 mins followed by Tl+ stimulus buffer addition and measured after 80 sec in presence of paxilline by Flexstation3 multimode microplate reader analysis; assay type: cell-based; conditions: filed as opener, time 980.0 sec
# Oocyte [11] = experiment: Activation of […] rat BKca channel W22A mutant extracted from Xenopus laevis Oocytes assessed as negative shift in V1/2 at 5 uM at -100 mV holding potential by patch-clamp electrophysiology recordings; assay type: cell-based; conditions: filed as opener
# Oocyte [12] = experiment: Activation of […] rat BKca channel F266A mutant extracted from Xenopus laevis Oocytes assessed as negative shift in V1/2 at 5 uM at -100 mV holding potential by patch-clamp electrophysiology recordings; assay type: cell-based; conditions: filed as opener
# Oocyte [13] = experiment: Activation of wildtype rat BKca channel extracted from Xenopus laevis Oocytes assessed as negative shift in V1/2 at 5 uM at -100 mV holding potential by patch-clamp electrophysiology recordings; assay type: cell-based; conditions: filed as opener
# Oocyte [14] = experiment: Activation of […] rat BKca channel S259A mutant extracted from Xenopus laevis Oocytes assessed as negative shift in V1/2 at 5 uM at -100 mV holding potential by patch-clamp electrophysiology recordings; assay type: cell-based; conditions: filed as opener
# [15] = tested on: Calcium-activated potassium channel subunit alpha-1 (Homo sapiens), Q12791 [UNDEFINED MUTATION]; experiment: as §2; assay type: cell-based
# [16] = Metabolic stability in human liver microsomes assessed as parent compound remaining at 1 uM preincubated for 15 mins followed by UDPGA addition and measured after 60 mins by LC-MS/MS analysis; assay type: ADME, Microsome; conditions: time 75 min, read-out: Stability
# [17] = Metabolic stability in rat liver microsomes assessed as parent compound remaining at 1 uM preincubated for 15 mins followed by UDPGA addition and measured after 60 mins by LC-MS/MS analysis; assay type: ADME, Microsome; conditions: time 75 min, read-out: Stability
# Rattus norvegicus [18] = experiment: Reversal of urinary incontinence in male spontaneous hypertensive rat model assessed as decrease in urine frequency at 20 to 40 mg/kg, po measured after 3 hrs; assay type: functional, organism-based; conditions: dose 20-40 mg/kg
smiles,measurement,setting,value
Oc1cc(NCCCCN2CCOCC2)ccc1Oc1c(F)c(F)c(C(F)(F)F)c(F)c1F [listing 1 of 2 here],Activity,[1],9.3%
Oc1ccc(Oc2cc(Cl)cc(Cl)c2)c(O)c1,Activity,[1]; filed as opener,61.5%
Oc1ccc(Oc2c(F)c(F)c(Cl)c(F)c2F)c(O)c1,Activity,[2]; filed as opener,41.6%
same,fold change (FC),[3],2.5
same,Activity,[1]; filed as opener,100%
same,"remaining at 0.5 h, 1 µM",[4],35.9%
same,"remaining at 0.5 h, 1 µM",[5],83.6%
same,fold change (FC),[6],9.7
same,EC50,[7],1580 nM
same,Activity,Oocyte [8],Active
Nc1ccc(Oc2c(F)c(F)c(C(F)(F)F)c(F)c2F)c(O)c1,Activity,[2]; filed as opener,100%
same,Activity,Rattus norvegicus [9],inactive
same,Activity,[1]; filed as opener,100%
same,Activity,[10],Active
NCCCCNc1ccc(Oc2c(F)c(F)c(C(F)(F)F)c(F)c2F)c(O)c1,Activity,[1],18%
Oc1cc(NCCCCCN2CCOCC2)ccc1Oc1c(F)c(F)c(C(F)(F)F)c(F)c1F,Activity,[1]; filed as opener,81.3%
same,Activity,Oocyte [11],24 mV
same,Activity,Oocyte [12],37.9 mV
same,Activity,Oocyte [13],86.2 mV
same,Activity,Oocyte [14],23.5 mV
Oc1ccc(Oc2ccc(Cl)c(Cl)c2)c(O)c1,Activity,[1],18.6%
NCc1ccc(Oc2c(F)c(F)c(C(F)(F)F)c(F)c2F)c(O)c1,Activity,[15],inactive
CNc1ccc(Oc2c(F)c(F)c(C(F)(F)F)c(F)c2F)c(O)c1,Activity,[2]; filed as opener,91.7%
same,"remaining at 1 h, 1 µM",[16],1.6%
same,Activity,[1]; filed as opener,91.7%
same,"remaining at 1 h, 1 µM",[17],4.7%
same,"remaining at 0.5 h, 1 µM",[4],4%
same,"remaining at 0.5 h, 1 µM",[5],76%
same,EC50,[7],420 nM
NCCCNc1ccc(Oc2c(F)c(F)c(C(F)(F)F)c(F)c2F)c(O)c1,Activity,[1],2.4%
Oc1c(F)c(F)c(Cl)c(F)c1F,Activity,[15],inactive
NCCCCCNc1ccc(Oc2c(F)c(F)c(C(F)(F)F)c(F)c2F)c(O)c1,Activity,[1]; filed as opener,53.4%
Oc1cc(NCCCCN2CCOCC2)ccc1Oc1c(F)c(F)c(C(F)(F)F)c(F)c1F [listing 2 of 2 here],"remaining at 0.5 h, 1 µM",[4],62.5%
same,"remaining at 0.5 h, 1 µM",[5],91.2%
same,EC50,[7],9220 nM
N#Cc1cc(N)ccc1Oc1c(F)c(F)c(C(F)(F)F)c(F)c1F,Activity,[1],8.1%
Oc1ccc(Oc2c(F)c(F)c(C(F)(F)F)c(F)c2F)c(O)c1,Activity,[2]; filed as opener,81.3%
same,Activity,[1]; filed as opener,102%
same,EC50,[7],680 nM
Nc1ccc(Oc2c(F)c(F)c(C(F)(F)F)c(F)c2F)nc1,Activity,[15],inactive
Nc1ccc(Oc2c(F)c(F)c(C(F)(F)F)c(F)c2F)c(Cl)c1,Activity,[2],5.3%
same,Activity,[1]; filed as opener,75.2%
Fc1c(F)c(C(F)(F)F)c(F)c(F)c1Oc1ccc2[nH]ccc2c1,Activity,[1],1%
CCNc1ccc(Oc2c(F)c(F)c(C(F)(F)F)c(F)c2F)c(O)c1,Activity,[1]; filed as opener,65.7%
Oc1ccccc1Oc1c(F)c(F)c(Cl)c(F)c1F,Activity,[1],-2.7%
Oc1cc(O)cc(Oc2c(F)c(F)c(Cl)c(F)c2F)c1,Activity,[1],11.8%
O=[N+]([O-])c1cc(O)ccc1Oc1c(F)c(F)c(C(F)(F)F)c(F)c1F,Activity,[1],0.1%
Oc1ccc(Oc2cc(C(F)(F)F)cc(C(F)(F)F)c2)c(O)c1,Activity,[2],23.7%
same,Activity,[1]; filed as opener,99.3%
Nc1ccc(Oc2c(F)c(F)c(C(F)(F)F)c(F)c2F)c(CO)c1,Activity,[1],37.9%
Oc1cccc(Oc2c(F)c(F)c(Cl)c(F)c2F)c1,Activity,[1],5%
Oc1ccc(Oc2c(F)c(F)c(Cl)c(F)c2F)cc1O,Activity,[1],4%
COc1cc(N)ccc1Oc1c(F)c(F)c(C(F)(F)F)c(F)c1F,Activity,[2],31.8%
same,Activity,Rattus norvegicus [18],inactive
same,Activity,[1]; filed as opener,107%
Oc1ccc(Oc2cccc(C(F)(F)F)c2)c(O)c1,Activity,[1],5.5%
Oc1ccc(Oc2ccc(Cl)cc2)c(O)c1,Activity,[1],1.2%
